Data: the supplement of paper PMC10307832

How the values were obtained:
Test in all cases: relative viability (nuclei count vs DMSO), 5 days (fraction); higher = more cells survive
[1] = compound: CCN1C(=O)C2=CC(=C(N=C2N(C1=O)C3CC3)N)C(=O)N + Nc1ncn([C@H]2C[C@H](O)[C@@H](CO)O2)c(=O)n1 [Decitabine] (partner 2 µM)
Method in brief: (§1)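 After 5 days of treatment, lung cancer cells in 1536-well plates were fixed and stained in a single step (final 0.05% Triton X-100, 1% formaldehyde, 1 ug/ml Hoechst) and their nuclei counted on 4× images. Treatment had been applied by pin tool the day after seeding as one drug alone or as a fixed anchor-drug dose with five library-drug doses (not always all listed) in √10 steps. Relative viability is the nuclei count of treated wells divided by that of vehicle wells, and values are medians of duplicate plates.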

[2] = compound: CCN1C(=O)C2=CC(=C(N=C2N(C1=O)C3CC3)N)C(=O)N + O=C(CCCCCCC(=O)Nc1ccccc1)NO [Vorinostat] (partner 1 µM)
Method in brief: as §1

[3] = compound: CCN1C(=O)C2=CC(=C(N=C2N(C1=O)C3CC3)N)C(=O)N + O=C(c1cc(Cc2n[nH]c(=O)c3ccccc23)ccc1F)N1CCN(C(=O)C2CC2)CC1 [Olaparib] (partner 8 µM)
Method in brief: as §1

[4] = compound: CCN1C(=O)C2=CC(=C(N=C2N(C1=O)C3CC3)N)C(=O)N + Cc1nc(NC(=O)N2CCC[C@H]2C(N)=O)sc1-c1ccnc(C(C)(C)C(F)(F)F)c1 [Alpelisib] (partner 2 µM)
Method in brief: as §1

[5] = compound: CCN1C(=O)C2=CC(=C(N=C2N(C1=O)C3CC3)N)C(=O)N + Nc1nc2[nH]cc(CCc3ccc(C(=O)N[C@@H](CCC(=O)O)C(=O)O)cc3)c2c(=O)[nH]1 [Pemetrexed] (partner 0.2 µM)
Method in brief: as §1

Cell Line | relative viability ([1]; first compound 0.253 µM) | relative viability ([1]; first compound 0.8 µM) | relative viability ([1]; first compound 2.53 µM) | relative viability ([1]; first compound 8 µM) | relative viability ([2]; first compound 0.253 µM) | relative viability ([2]; first compound 0.8 µM) | relative viability ([2]; first compound 2.53 µM) | relative viability ([2]; first compound 8 µM) | relative viability ([3]; first compound 0.253 µM) | relative viability ([3]; first compound 0.8 µM) | relative viability ([3]; first compound 2.53 µM) | relative viability ([3]; first compound 8 µM) | relative viability ([4]; first compound 0.253 µM) | relative viability ([4]; first compound 0.8 µM) | relative viability ([4]; first compound 2.53 µM) | relative viability ([4]; first compound 8 µM) | relative viability ([5]; first compound 0.253 µM) | relative viability ([5]; first compound 0.8 µM) | relative viability ([5]; first compound 2.53 µM) | relative viability ([5]; first compound 8 µM)
NCI-H650 | 0.331 | 0.325 | 0.329 | 0.283 | 0.565 | 0.313 | 0.408 | 0.421 | 0.437 | 0.39 | 0.296 | 0.445 | 1.22 | 1.06 | 1 | 1.02 | 0.962 | 0.782 | 0.954 | 0.978
NCI-H2009 | 0.385 | 0.409 | 0.394 | 0.379 | 0.732 | 0.647 | 0.62 | 0.663 | 0.688 | 0.665 | 0.667 | 0.71 | 1.17 | 1.11 | 1.13 | 1.09 | 1.1 | 1.09 | 1 | 0.966
EPLC-272H | 0.362 | 0.376 | 0.399 | 0.379 |  | 0.538 | 0.411 | 0.477 |  | 0.752 | 0.975 | 1.08 | 0.801 | 0.868 | 0.901 | 0.942 |  | 0.265 | 0.301 | 0.368
NCI-H520 | 0.483 | 0.48 | 0.474 | 0.428 | 0.719 | 0.655 | 0.717 | 0.817 | 0.335 | 0.341 | 0.356 | 0.3 | 0.89 | 0.765 | 0.962 | 0.923 | 0.635 | 0.64 | 0.703 | 0.657
NCI-H2405 | 0.771 |  | 0.718 | 0.669 | 1.21 |  | 1.26 | 1.14 | 0.9 |  | 0.904 | 0.91 | 0.909 | 0.79 | 0.767 | 0.723 | 1.1 |  | 1.14 | 1.03
NCI-H2085 | 0.566 | 0.522 | 0.563 | 0.524 | 0.767 | 0.764 | 0.747 | 0.782 | 0.835 | 0.815 | 0.72 | 0.814 | 0.96 | 0.945 | 0.924 | 1.04 | 0.914 | 0.847 | 0.987 | 0.851
NCI-H322M | 0.697 | 0.728 | 0.673 | 0.719 | 1.04 | 0.758 | 1.04 | 0.931 | 0.855 | 0.785 | 0.753 | 0.822 | 0.855 | 0.694 | 0.765 | 0.656 | 0.632 | 0.541 | 0.634 | 0.6
NCI-H1944 | 0.485 | 0.423 | 0.393 | 0.434 | 0.641 | 0.51 | 0.51 | 0.553 | 0.4 | 0.411 | 0.374 | 0.437 | 0.826 | 0.832 | 0.749 | 0.842 | 0.64 | 0.589 | 0.615 | 0.624
